{"source": "patent US20160303231A1", "about": "“TREATING CANCER WITH A COMBINATION OF A PD-1 ANTAGONIST AND A VEGFR INHIBITOR” (GLAXOSMITHKLINE LLC, priority 2013, published 2016)", "test_system": "RENCA cells", "assay": "Anti-tumor response of tumor-bearing mice (RENCA tumor model)", "format": "in vivo, BALB/c mice", "details": "for Tumor Size (D17): Mean ± SEM, day 17", "description": "A cohort of 8 weeks old female BALB/c mice were implanted with 1×10^6 RENCA cells. […] The Vehicle control was 0.5% hydroxypropylemethylcellulose, 0.1% Tween-80 in distilled water, pH adjusted to 1.3-1.5 with 0.1N hydrochloric acid. The Isotype control was mouse IgG1 specific for an adenoviral hexon protein (clone TC31.27F11).\nA one-way ANOVA test was performed to compare tumor volume at the end of study among groups.", "key": {"[1]": {"details": "G4: Isotype 5 mpk + Pazopanib 100 mpk qd"}, "[2]": {"details": "G6: Isotype 1 mpk + Pazopanib 100 mpk qd"}, "[3]": {"details": "G8: Isotype 5 mpk + Pazopanib 100 mpk bid"}}, "note": "Structures can show the parent of a compound that is named as a salt."}
{"smiles": "Cc1ccc(Nc2nccc(N(C)c3ccc4c(C)n(C)nc4c3)n2)cc1S(N)(=O)=O", "note": "[Pazopanib, 5-[[4-[(2,3-dimethyl-2H-indazol-6-yl)methylamino]-2-pyrimidinyl]amino]-2-methylbenzenesulfonamide monohydrochloride]", "values": [{"measurement": "T/C", "setting": "[1]", "value": 61, "unit": "%"}, {"measurement": "TGI (tumor growth inhibition)", "setting": "[1]", "value": 39, "unit": "%"}, {"measurement": "T/C", "setting": "[2]", "value": 70, "unit": "%"}, {"measurement": "TGI (tumor growth inhibition)", "setting": "[2]", "value": 30, "unit": "%"}, {"measurement": "Tumor Size (D17)", "setting": "[2]", "value": "1,751 ± 214 mm^3"}, {"measurement": "T/C", "setting": "[3]", "value": 48, "unit": "%"}, {"measurement": "TGI (tumor growth inhibition)", "setting": "[3]", "value": 52, "unit": "%"}, {"measurement": "Tumor Size (D17)", "setting": "[3]", "value": "1,240 ± 97 mm^3"}]}
